Experimental data reported in patent EP0334218A1, “Solid, especially suited for oral and rectal adiministration, etofenamate-containing preparations” (HEXAL-PHARMA GMBH & CO. KG, priority 1988, dated 1989).
Converted amounts (≈) assume the structure as drawn.

Assay: Solubility behaviour (dissolved etofenamate over time) in distilled water
Type: physicochemical
Conditions: 22° C, read-out: Etofenamat gelöst
Experimental: Vergleich des Löslichkeitsverhaltens von reinem Etofenamat und zwei Etofenamat-Cyclodextrinzubereitungen gemäß der Erfindung:
Die Untersuchungen wurden in destilliertem Wasser bei 22° C durchgeführt und erbrachten die folgenden Ergebnisse: […]

solubility at 1 min (1 min): 9 µg/mL (≈ 24.4 µM)
solubility at 0.05 h (3 min): 11 µg/mL (≈ 29.8 µM)
solubility at 5 min (5 min): 11 µg/mL (≈ 29.8 µM)
solubility at 10 min (10 min): 11 µg/mL (≈ 29.8 µM)
solubility at 0.25 h (15 min): 13 µg/mL (≈ 35.2 µM)
solubility at 0.5 h (30 min): 13 µg/mL (≈ 35.2 µM)
solubility at 0.75 h (45 min): 11 µg/mL (≈ 29.8 µM)
solubility at 1 h (60 min): 12 µg/mL (≈ 32.5 µM)
SMILES: O=C(OCCOCCO)c1ccccc1Nc1cccc(C(F)(F)F)c1 [Etofenamat, 2-(2-Hydroxyethoxy)-ethyl-N-(α,α,α-trifluoro-m-tolyl)-anthranilat]
